Experiment [1] is described as follows: DRUGMATRIX: ATPase, Na+/K+ enzyme inhibition (substrate: ATP). It counts as tissue-based, Sus scrofa, Heart. To be noted: Not Active = under 50% inhibition at 10 µM.
A further experiment concerns the target Melanocortin receptor 5 (Homo sapiens, UniProt P33032). It counts as cell membranes, HEK293, Membrane. To be noted: hek293. Also: in other assays of this panel Not Active means under 50% inhibition at 10 µM.
Experiment [2] addresses T1, Alpha-1D adrenergic receptor (Homo sapiens, UniProt P25100).
T1 sequence (P25100 whole entry): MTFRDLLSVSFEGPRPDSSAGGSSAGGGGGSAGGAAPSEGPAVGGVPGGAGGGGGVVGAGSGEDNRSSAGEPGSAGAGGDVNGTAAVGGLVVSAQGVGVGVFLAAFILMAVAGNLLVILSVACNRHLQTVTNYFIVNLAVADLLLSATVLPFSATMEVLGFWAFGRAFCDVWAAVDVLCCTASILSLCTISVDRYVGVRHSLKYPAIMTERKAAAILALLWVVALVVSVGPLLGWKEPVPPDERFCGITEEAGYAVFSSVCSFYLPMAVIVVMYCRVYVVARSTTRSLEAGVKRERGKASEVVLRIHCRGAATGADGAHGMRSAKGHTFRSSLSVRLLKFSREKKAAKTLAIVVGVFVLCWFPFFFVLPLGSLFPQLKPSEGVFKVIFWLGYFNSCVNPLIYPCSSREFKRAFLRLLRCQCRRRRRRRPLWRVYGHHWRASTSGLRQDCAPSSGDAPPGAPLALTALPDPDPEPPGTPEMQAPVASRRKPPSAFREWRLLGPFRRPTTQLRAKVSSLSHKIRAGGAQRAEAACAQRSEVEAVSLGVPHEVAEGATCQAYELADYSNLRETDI
It is filed as cell membranes, HEK293, Membrane. The settings on record: for pIC50: read-out: IC50; for pKi: read-out: Ki; for IC50: hek293.

Another experiment concerns the target Acetylcholinesterase (Homo sapiens, UniProt P22303). The experiment in a line: DRUGMATRIX: Acetylcholinesterase enzyme inhibition (substrate: acetylthiocholine). The settings on record: hek293; Not Active = under 50% inhibition at 10 µM. It counts as cell-based, HEK293.
The nature of experiment [3]: DRUGMATRIX: Glutamate, NMDA, Agonism radioligand binding (ligand: [3H] CGP-39653). It is filed as cell membranes, Rattus norvegicus, Wistar, Cerebral cortex, Membrane. To be noted: Not Active = under 50% inhibition at 10 µM.
Experiment [4] can be described thus: DRUGMATRIX: Platelet-Derived Growth Factor (PDGF) radioligand binding (ligand: [125I] PDGF). It counts as cell-based. The settings on record: nih3t3; Not Active = under 50% inhibition at 10 µM.
Experiment [5] is described as follows: DRUGMATRIX: Interleukin IL-1 radioligand binding (ligand: [125I] interleukin 1beta). To be noted: nih3t3; Not Active = under 50% inhibition at 10 µM. It is filed as cell membranes, Membrane.

The structures appear in SMILES notation. pIC50, pKi: −log10 of the molar value.

Drawing on ChEMBL document CHEMBL1909046, “DrugMatrix in vitro pharmacology data”, this text covers IC50 and Ki for 14 compounds.

Broadly, the pIC50 is the IC50 on a negative log10 scale, so that one unit is a factor of ten. What is called pKi is the negative decadic logarithm of the Ki, by convention in mol/L.

Sequence of Melanocortin receptor 5 (P33032 whole entry): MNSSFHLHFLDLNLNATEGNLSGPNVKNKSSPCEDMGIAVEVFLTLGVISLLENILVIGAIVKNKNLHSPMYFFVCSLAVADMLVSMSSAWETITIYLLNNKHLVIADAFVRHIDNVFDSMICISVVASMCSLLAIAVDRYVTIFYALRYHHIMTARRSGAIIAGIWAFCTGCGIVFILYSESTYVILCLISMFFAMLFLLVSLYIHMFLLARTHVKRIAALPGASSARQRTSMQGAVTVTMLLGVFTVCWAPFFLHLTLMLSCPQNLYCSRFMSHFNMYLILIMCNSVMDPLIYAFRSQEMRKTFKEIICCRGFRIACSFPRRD
Sequence of Acetylcholinesterase (P22303 whole entry): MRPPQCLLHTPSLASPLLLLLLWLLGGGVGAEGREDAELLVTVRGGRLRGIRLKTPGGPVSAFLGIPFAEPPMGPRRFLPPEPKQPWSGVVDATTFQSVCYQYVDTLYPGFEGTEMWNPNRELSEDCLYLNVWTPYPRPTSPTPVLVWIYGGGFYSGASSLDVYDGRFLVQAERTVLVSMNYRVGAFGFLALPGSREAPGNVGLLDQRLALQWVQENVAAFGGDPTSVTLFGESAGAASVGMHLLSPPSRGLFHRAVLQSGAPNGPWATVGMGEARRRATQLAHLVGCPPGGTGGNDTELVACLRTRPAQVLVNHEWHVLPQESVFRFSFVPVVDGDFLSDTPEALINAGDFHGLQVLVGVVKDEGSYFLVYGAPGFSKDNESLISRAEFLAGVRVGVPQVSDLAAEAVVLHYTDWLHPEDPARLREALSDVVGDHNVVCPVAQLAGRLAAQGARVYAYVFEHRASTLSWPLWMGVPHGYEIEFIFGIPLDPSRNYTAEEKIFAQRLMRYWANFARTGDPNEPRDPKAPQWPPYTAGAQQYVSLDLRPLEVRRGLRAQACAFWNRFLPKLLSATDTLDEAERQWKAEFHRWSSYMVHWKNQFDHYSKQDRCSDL

Take `CN1CCN(C(c2ccccc2)c2ccccc2)CC1` [CYCLIZINE]: the IC50 result (in experiment [1]; against Melanocortin receptor 5; at Acetylcholinesterase; in experiment [3]; in experiment [4]; in experiment [5]) was “Not Active” throughout. In addition, the Ki entry in experiment [1], in experiment [3], in experiment [4] and in experiment [5] was “Not Active” throughout. In addition, the pIC50 in experiment [2] was 5.92. Moreover, the pKi in experiment [2] is 6.22.

As to `CN1C[C@@H]2C[C@H]1CN2c1cc2c(cc1F)c(=O)c(C(=O)O)cn2C1CC1` [DANOFLOXACIN], the IC50 entry (in experiment [1]; on Melanocortin receptor 5; in experiment [2]; against Acetylcholinesterase; in experiment [3]; in experiment [4]) was “Not Active” in each case. In addition, the IC50 result in experiment [5] is listed as “Not Active”. Besides, the Ki result in experiment [1], in experiment [3], in experiment [4] and in experiment [5] was “Not Active” each time.

For the compound `COc1cccc2c1C(=O)c1c(O)c3c(c(O)c1C2=O)C[C@@](O)(C(C)=O)C[C@@H]3O[C@H]1C[C@H](N)[C@H](O)[C@H](C)O1` [DAUNORUBICIN], the IC50 result (in experiment [1]; on Melanocortin receptor 5; in experiment [2]; on Acetylcholinesterase; in experiment [3]; in experiment [4]) was “Not Active” in each case. The IC50 entry in experiment [5] is “Not Active”. Also, the Ki entry in experiment [1], in experiment [3], in experiment [4] and in experiment [5] was “Not Active” in each case.

With `O=C(O)c1cc(-c2ccc(F)cc2F)ccc1O` [DIFLUNISAL], the IC50 entry (in experiment [1]; on Melanocortin receptor 5; in experiment [2]; against Acetylcholinesterase; in experiment [3]; in experiment [4]) was “Not Active” each time. In experiment [5], the IC50 result was “Not Active”. In addition, the Ki result in experiment [1], in experiment [3], in experiment [4] and in experiment [5] was “Not Active” each time.

With `C[S+](C)[O-]` [DIMETHYL SULFOXIDE], the IC50 entry (in experiment [1]; on Melanocortin receptor 5; in experiment [2]; on Acetylcholinesterase; in experiment [3]; in experiment [4]) was “Not Active” throughout. Besides, the IC50 result in experiment [5] is reported as “Not Active”. Further, the Ki result in experiment [1], in experiment [3], in experiment [4] and in experiment [5] was “Not Active” throughout.

Consider `CC1=NN(c2ccccc2)C(=O)C1` [EDARAVONE], for which the IC50 entry (in experiment [1]; against Melanocortin receptor 5; in experiment [2]; against Acetylcholinesterase; in experiment [3]; in experiment [4]) was “Not Active” in each case. The IC50 entry in experiment [5] is recorded as “Not Active”. Also, the Ki result in experiment [1], in experiment [3], in experiment [4] and in experiment [5] was “Not Active” in each case.

Turning to `CC(C)C[C@H]1C(=O)N2CCC[C@H]2[C@]2(O)O[C@](NC(=O)[C@@H]3C=C4c5cccc6[nH]cc(c56)C[C@H]4N(C)C3)(C(C)C)C(=O)N12` [ERGOCRYPTINE], the IC50 result (in experiment [1]; against Melanocortin receptor 5; on Acetylcholinesterase; in experiment [3]; in experiment [4]; in experiment [5]) was “Not Active” each time. The Ki result in experiment [1], in experiment [3], in experiment [4] and in experiment [5] was “Not Active” each time. Also, the pIC50 in experiment [2] is 7.32. Moreover, the pKi in experiment [2] was 7.62.

Consider `C[C@]12CC[C@@H]3c4ccc(O)cc4CC[C@H]3[C@@H]1C[C@@H](O)[C@@H]2O` [ESTRIOL], for which the IC50 entry (in experiment [1]; on Melanocortin receptor 5; in experiment [2]; against Acetylcholinesterase; in experiment [3]; in experiment [4]) was “Not Active” each time. The IC50 entry in experiment [5] is “Not Active”. Besides, the Ki entry in experiment [1], in experiment [3], in experiment [4] and in experiment [5] was “Not Active” throughout.

In the case of `C#C[C@]1(O)CC[C@H]2[C@@H]3CCC4=CC(=O)CC[C@]4(C)[C@H]3CC[C@@]21C` [ETHISTERONE], the IC50 entry (in experiment [1]; against Melanocortin receptor 5; in experiment [2]; against Acetylcholinesterase; in experiment [3]; in experiment [4]) was “Not Active” each time. Also, the IC50 result in experiment [5] is reported as “Not Active”. For the same compound, the Ki result in experiment [1], in experiment [3], in experiment [4] and in experiment [5] was “Not Active” each time.

In the case of `CC(O)(P(=O)(O)O)P(=O)(O)O` [ETIDRONIC ACID], the IC50 entry (in experiment [1]; against Melanocortin receptor 5; in experiment [2]; on Acetylcholinesterase; in experiment [3]; in experiment [4]) was “Not Active” throughout. In experiment [5], the IC50 entry is “Not Active”. Besides, the Ki result in experiment [1], in experiment [3], in experiment [4] and in experiment [5] was “Not Active” throughout.

Consider `CC(C)(C(=O)O)c1ccc(C(O)CCCN2CCC(C(O)(c3ccccc3)c3ccccc3)CC2)cc1` (stereo unspecified) [FEXOFENADINE], for which the IC50 result (in experiment [1]; against Melanocortin receptor 5; in experiment [2]; against Acetylcholinesterase; in experiment [3]; in experiment [4]) was “Not Active” throughout. In addition, the IC50 entry in experiment [5] is listed as “Not Active”. For the same compound, the Ki entry in experiment [1], in experiment [3], in experiment [4] and in experiment [5] was “Not Active” each time.

Turning to `CN1CCN(c2c(F)cc3c(=O)c(C(=O)O)cn(CCF)c3c2F)CC1` [FLEROXACIN], the IC50 entry (in experiment [1]; against Melanocortin receptor 5; in experiment [2]; against Acetylcholinesterase; in experiment [3]; in experiment [4]) was “Not Active” in each case. Further, in experiment [5], the IC50 entry is “Not Active”. Also, the Ki result in experiment [1], in experiment [3], in experiment [4] and in experiment [5] was “Not Active” in each case.

For `O=c1[nH]c(=O)n([C@H]2C[C@H](O)[C@@H](CO)O2)cc1F` [FLOXURIDINE], the IC50 result (in experiment [1]; against Melanocortin receptor 5; in experiment [2]; against Acetylcholinesterase; in experiment [3]; in experiment [4]) was “Not Active” in each case. The IC50 entry in experiment [5] is “Not Active”. In addition, the Ki entry in experiment [1], in experiment [3], in experiment [4] and in experiment [5] was “Not Active” each time.

On to `COC(=O)Nc1nc2cc(C(=O)c3ccc(F)cc3)ccc2[nH]1` [FLUBENDAZOLE], for which the IC50 entry (in experiment [1]; at Melanocortin receptor 5; in experiment [2]; against Acetylcholinesterase; in experiment [3]; in experiment [4]) was “Not Active” in each case. Besides, the IC50 result in experiment [5] is reported as “Not Active”. The Ki entry in experiment [1], in experiment [3], in experiment [4] and in experiment [5] was “Not Active” in each case.
